Experimental data published in patent US20220177456A1, “COMPOUNDS, COMPOSITIONS AND METHODS” (Denali Therapeutics Inc., priority 2019, published 2022).

tested on: ISR pathway (ATF4 translation), H4 ATF4-NLuc (clone 17) cell line; experiment: ATF4 Nano Luciferase reporter integrated stress response (ISR) assay in H4 ATF4-NLuc cells; type: cell-based; conditions: human H4 neuroglioma ATF4-NLuc cells; compound 30 minutes, then 50 μm sodium arsenite for 6 hours; luminescence readout
From the text: Cellular stress leads to activation of the integrated stress response pathway through one of four eukaryotic initiation factor 2α kinases and halts global translation, while allowing for the translation of select transcripts like ATF4 (activating transcription factor 4) that are important for the response to cellular stress. During normal conditions, small open reading frames (ORFs) in the 5′ UTR of ATF4 occupy the ribosome and prevent translation of the coding sequence of ATF4. During stress conditions however, the ribosome scans past these upstream ORFs and preferentially begins translation at the coding sequence of ATF4. In this way, the translation, and thus protein level of ATF4 is a readout of ISR pathway activation. Thus, a fusion of the uORFs and the beginning of the coding sequence of ATF to a common cellular reporter like nano-luciferase allows for a sensitive and high-throughput readout of ISR pathway activity.
Compounds as provided herein were tested in the following assay. The ATF4 Nano Luciferase reporter was constructed by fusing the human full length 5′ untranslated region (5′-UTR) and a small portion of the coding sequence of the ATF4 gene upstream of the Nano Luciferase (NLuc) coding sequence lacking it's start codon. Specifically, nucleotides +1 through +364 (relative to the transcriptional start site) of ATF4 transcript variant 2 (NCBI NM_182810.2) flanked 5′ by EcoRI and 3′ by BamHI restriction enzyme sites were synthesized and cloned into the EcoRI/BamHI cloning sites of pLVX-EF1a-IRES-Puro lentivirus vector (Clontech). Lentiviral particles were produced with Lenti-X single shots (VSV-G, Clontech) according to the manufacturer's instructions and used to transduce a human H4 neuroglioma cell line (ATCC HT1B-148). H4 cells were selected with 1.25 μg/mL Puromycin, and clonal cell lines generated by limiting dilution. We utilized this cell line to generate an integrated stress response (ISR) assay to evaluate the activity of ISR pathway inhibitors via luminescence readout. The H4 ATF4-NLuc (clone 17) cell line is plated at a density of […] cells in 96-well or 384-well respectively in DMEM +10% fetal bovine serum. 24-hours later test compounds diluted in dimethyl sulfoxide (DMSO) are added for 30 minutes at 37° C., followed by ISR pathway activation with 50 μm sodium arsenite aqueous solution for 6 additional hours. Nano Glo luciferase reagent (N1150, Promega) is added according to manufacturer instructions and the luminescence signal (corresponding to the level of ATF4 translation and thus ISR pathway activation) is read with a standard plate reader with luminescence detection capabilities.
In the tables below, activity of the tested compounds is provided, and in Table 3 as follows: +++=0.003 μM<IC50<1 μM; ++=IC50 1-10 μM; +=IC50>10 μM.

SMILES	IC50
O=C(COc1ccc(C(F)(F)F)cc1)N[C@@H]1CC[C@@H](C(=O)NCc2ccc(C(F)(F)F)cc2)OC1 [Example 1, (2S,5R)-5-[[2-[4-(trifluoromethyl)phenoxy]acetyl]amino]-N-[[4-(trifluoromethyl)phenyl]methyl]tetrahydropyran-2-carboxamide]	3 to 1000 nM
O=C(COc1ccc(C(F)(F)F)cc1)N[C@@H]1CC[C@@H](C(=O)Nc2ccc3cc(Cl)ccc3n2)OC1 [Example 2, (2S,5R)—N-(6-chloro-2-quinolyl)-5-[[2-[4-(trifluoromethyl)phenoxy]acetyl]amino]tetrahydropyran-2-carboxamide]	3 to 1000 nM
CC1CN(C(=O)[C@@H]2CC[C@@H](NC(=O)COc3ccc(Cl)cc3)CO2)Cc2ccc(Cl)cc21 (stereo partly drawn) [Example 3, 2-(4-chlorophenoxy)-N-[(3R,6S)-6-(6-chloro-4-methyl-3,4-dihydro-1H-isoquinoline-2-carbonyl)tetrahydropyran-3-yl]acetamide]	3 to 1000 nM
O=C(COc1ccc(C(F)(F)F)cc1)N[C@@H]1CC[C@@H](C(=O)NCCCOC(F)(F)F)OC1 [Example 4, (2S,5R)-N-[3-(trifluoromethoxy)propyl]-5-[[2-[4-(trifluoromethyl)phenoxy]acetyl]amino]tetrahydropyran-2-carboxamide]	3 to 1000 nM
O=C(COc1ccc(C(F)(F)F)cc1)N[C@@H]1CC[C@@H](C(=O)N2CCc3cc(C(F)(F)F)ccc3C2)OC1 [Example 5, N-[(3R,6S)-6-[6-(trifluoromethyl)-3,4-dihydro-1H-isoquinoline-2-carbonyl]tetrahydropyran-3-yl]-2-[4-(trifluoromethyl)phenoxy] acetamide]	3 to 1000 nM
CC1c2ccc(Cl)cc2CCN1C(=O)[C@@H]1CC[C@@H](NC(=O)COc2ccc(Cl)cc2)CO1 (stereo partly drawn) [Example 6, 2-(4-chlorophenoxy)-N-[(3R,6S)-6-(6-chloro-1-methyl-3,4-dihydro-1H-isoquinoline-2-carbonyl)tetrahydropyran-3-yl]acetamide]	3 to 1000 nM
O=C(COc1ccc(C(F)(F)F)cc1)N[C@@H]1CC[C@@H](C(=O)Nc2ccc3ccc(Cl)cc3n2)OC1 [Example 7, (2S,5R)-N-(7-chloro-2-quinolyl)-5-[[2-[4-(trifluoromethyl)phenoxy]acetyl]amino]tetrahydropyran-2-carboxamide]	3 to 1000 nM
O=C(COc1ccc(C(F)(F)F)cc1)N[C@@H]1CC[C@@H](C(=O)N2C[C@@H]3[C@H](C2)[C@H]3C(F)(F)F)OC1 [Example 8, N-[(3R,6S)-6-[(1r,5s)-6-(trifluoromethyl)-3-azabicyclo[3.1.0]hexane-3-carbonyl]tetrahydropyran-3-yl]-2-[4-(trifluoromethyl)phenoxy]acetamide]	1000 to 10000 nM
O=C(COc1ccc(C(F)(F)F)cc1)N[C@@H]1CC[C@@H](C(=O)Nc2cc3ccc(Cl)cc3cn2)OC1 [Example 9, (2S,5R)-N-(7-chloro-3-isoquinolyl)-5-[[2-[4-(trifluoromethyl)phenoxy]acetyl]amino]tetrahydropyran-2-carboxamide]	3 to 1000 nM
O=C(COc1ccc(C(F)(F)F)cc1)N[C@@H]1CC[C@@H](C(=O)N2CCc3nc(C(F)(F)F)ccc3C2)OC1 [Example 10, N-[(3R,6S)-6-[2-(trifluoromethyl)-7,8-dihydro-5H-1,6-naphthyridine-6-carbonyl]tetrahydropyran-3-yl]-2-[4-(trifluoromethyl)phenoxy] acetamide]	3 to 1000 nM
O=C(COc1ccc(C(F)(F)F)cc1)N[C@@H]1CC[C@@H](C(=O)N2Cc3ccc(C(F)(F)F)cc3C2)OC1 [Example 11, N-[(3R,6S)-6-[5-(trifluoromethyl)isoindoline-2-carbonyl]tetrahydropyran-3-yl]-2-[4-(trifluoromethyl)phenoxy] acetamide]	3 to 1000 nM
O=C(N[C@@H]1CC[C@@H](C(=O)N[C@H]2C[C@@H](COC(F)(F)F)C2)OC1)c1ccc2cc(C(F)(F)F)ccc2n1 [Example 12, N-[(3R,6S)-6-[[3-cis-(trifluoromethoxymethyl)cyclobutyl]carbamoyl]tetrahydropyran-3-yl]-6-(trifluoromethyl) quinoline-2-carboxamide]	3 to 1000 nM
